The values that follow come from PMC9675719, “Expedient Synthesis of a Library of Heparan Sulfate‐Like “Head‐to‐Tail” Linked Multimers for Structure and Activity Relationship Studies” (Angewandte Chemie (International Ed. in English), 2022).

The term Kd denotes the free concentration of one partner at which half of the binding sites on the other are occupied at equilibrium, for simple one-to-one binding. The IC50 is the point on the concentration scale where inhibition reaches its midpoint.

In assay [1] the target is T1, FGF-2 (Homo sapiens, UniProt P09038). More on the design: method as in PMID 17066397. The following applies: glycan microarray, glycan concentration 16 μM; cited from earlier work.
The target in assay [2] is T1, FGF-2. The assay is described as follows: Direct binding SPR with FGF-2 immobilized on CDH sensor chip. As for the experimental part: The direct binding of FGF‐2 to the HS mimetics was measured by surface plasmon resonance (SPR). FGF‐2 was immobilized on a carboxymethyl dextran high capacity (CDH) sensor chip surface through carbodiimide mediated coupling. O‐/N‐Sulfated (33), O‐sulfated (33 z) and N‐sulfated (33 m) pseudo‐hexasaccharides were selected as analytes in addition to the heparin polysaccharide (MW: 17.2 kDa). […] Seeberger and co‐workers studied the binding of HS hexasaccharides with FGF‐2 through a powerful glycan microarray technology.[36] […] The N‐acetylated, O‐sulfated hexasaccharide 35 gave binding of ≈20 % of that of heparin, while the hexasaccharide 36 having three N‐sulfates only gave the lowest signal (<2%) binding to FGF‐2. The trend of decreasing FGF‐2 affinity from N‐ and O‐sulfated, to O‐sulfated only, to N‐sulfated only sequences of HS hexasaccharides (34, 35, 36) correlates well with those of the pseudo‐hexasaccharides 33, 33 z, and 33 m.
Figure 3 a) The SPR sensorgram of FGF‐2 binding with compound 33. The concentrations of 33 from top to bottom curves were 750 nM, 500 nM, 250 nM, 100 nM, 10 nM, and 1 nM. Each experiment was repeated at least three times with the representative data shown. The vertical line indicates the time when the dissociation process started. b) Table of K D values determined for 33, 33 z, and 33 m through the FGF‐2 SPR binding assay. c) Structures of compounds 35–38.
Measurements of binding constants of pseudo-hexasaccharides 33, 33z, and 33m with FGF-2 […]
FGF-2 was immobilized on sensor chip by primary amine coupling reaction. The surface of a CDH sensor chip (FortéBio, Inc., Molecular Devices, USA) was activated using freshly mixed N-hydroxysuccimide (NHS; 0.05 M) and 1-(3-(dimethylamino)propyl)-ethylcarbodiimide (EDC; 0.2 M) (1/1,v/v) in water, followed by the injection of FGF -2 (50 µg/ml) in PBS buffer. The remaining active esters were quenched by ethanolamine (1.0 M). Solutions of various concentrations of pseudo-hexasaccharides 33, 33z, and 33m dissolved in 0.01% Tween 20 PBS buffer were injected over the FGF-2 chip at a flow rate of 30 µL/min, and the responses to binding were recorded .
Aqueous NaCl solution (2.0 M) was employed for regeneration to achieve baseline status after each run. Sensorgrams were evaluated using the Qdat program. The response data due to association and dissociation were processed in Qdat using a reference surface to correct for any bulk refractive index changes and blank injections for double referencing . The binding profiles were fit globally into a 1:2 interaction model. The KD values were calculated by the Qdat software.
Analysis of the inhibition of pseudo-hexasaccharides on heparin/FGF-2 interaction using […]

Assay [3] concerns the target T1, FGF-2. Briefly: Competition SPR assay: inhibition of FGF-2 interaction with immobilized biotinylated heparin. Format: binding. The following applies: for IC50: immobilized biotinylated heparin, FGF-2 50 nM, read-out: IC50 (amount of mimetic needed to reduce the FGF-2 binding by 50 %). As for the experimental part: A competition SPR assay was performed to establish the SAR between the full panel of 27 HS‐like pseudo‐hexasaccharides and FGF‐2 (Figure 4). Biotinylated heparin was immobilized on the biosensor, and the pseudo‐hexasaccharides (10 μM) were mixed with FGF‐2 (50 nM) individually. […] The trend of 33, 33 z and 33 m in the order of decreasing FGF‐2 affinity is consistent with that observed in the direct binding SPR study (Figures 3 and S1). The IC50 values of several disaccharides and pseudo‐tetrasaccharides with FGF‐2 have also been measured. The disaccharides bound weakly with FGF‐2, and the fully sulfated pseudo‐tetrasaccharide gave the strongest binding among the pseudo‐tetrasaccharides tested, which in turn was much weaker than that of the pseudo‐hexasaccharide 33 (Figure S2).
Figure 4 Inhibition of 27 pseudo‐hexasaccharides (33, 33 a–z) on FGF‐2 interaction with heparin through a competition SPR assay. Biotinylated heparin was immobilized on the SPR biosensor. For the control well, FGF‐2 (50 nM) was flown over the sensor and the intensity of the signal due to FGF‐2 binding was set as a reference (100 %). […] Normalized FGF‐2 binding % was calculated based on the following formula: (signal intensity of FGF‐2/pseudo‐hexasaccharide)/(signal intensity of FGF‐2 only)×100 %. […]
FGF-2 was immobilized on sensor chip by primary amine coupling reaction. […] Solutions of various concentrations of pseudo-hexasaccharides 33, 33z, and 33m dissolved in 0.01% Tween 20 PBS buffer were injected over the FGF-2 chip at a flow rate of 30 µL/min, and the responses to binding were recorded .
Aqueous NaCl solution (2.0 M) was employed for regeneration to achieve baseline status after each run. Sensorgrams were evaluated using the Qdat program. […] The KD values were calculated by the Qdat software. […]
Heparin SPR chip was prepared by immobilizing biotinylated heparin on SA sensor chip (Cytiva, Uppsala, Sweden).[13] […] Normalized FGF - 2 binding % was calculated based on the following formula: (signal intensity o f FGF-2/pseudohexasaccharide)/(signal intensity of FGF -2 only) x 100%. […]
Background: In SPR one partner is held on a chip, and binding of the other changes the refractive index at the surface.

Assay [4] addresses T1, FGF-2. More on the design: method as in PMID 28651046, PMID 24959968. The following applies: read-out: KD of FGF-2 binding; cited from earlier work.
[5] abbreviates: immobilized FGF-2, 1:2 interaction model, read-out: dissociation constant (KD) of binding to FGF-2.

Molecules are shown by their SMILES. Read-outs that look alike come from different tables or passages of the source.

T1 sequence (P09038 134-288 limits assumed, species assumed): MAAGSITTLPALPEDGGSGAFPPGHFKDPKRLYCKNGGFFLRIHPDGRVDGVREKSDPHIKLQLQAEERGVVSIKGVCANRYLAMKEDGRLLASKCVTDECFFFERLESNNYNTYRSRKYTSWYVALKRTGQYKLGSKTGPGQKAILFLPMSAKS

Consider `CC(=O)N[C@H]1[C@@H](O[C@H]2[C@H](O)[C@@H](OS(=O)(=O)O)[C@H](OCCCCCN)O[C@H]2C(=O)O)O[C@H](COS(=O)(=O)O)[C@@H](O[C@@H]2O[C@@H](C(=O)O)[C@@H](O[C@H]3O[C@H](COS(=O)(=O)O)[C@@H](O[C@@H]4O[C@@H](C(=O)O)[C@@H](O[C@H]5O[C@H](COS(=O)(=O)O)[C@@H](O)[C@H](O)[C@H]5NC(C)=O)[C@H](O)[C@H]4OS(=O)(=O)O)[C@H](O)[C@H]3NC(C)=O)[C@H](O)[C@H]2OS(=O)(=O)O)[C@@H]1O` [compound 35], for which the “binding to FGF-2 as compared to heparin polysaccharide” value at FGF-2 [1] is given as “≈ 20%”.
In the case of `CC(=O)NCCO[C@@H]1O[C@@H](C(=O)O)[C@@H](O[C@H]2O[C@H](COS(=O)(=O)O)[C@@H](OCCC(=O)NCCO[C@@H]3O[C@@H](C(=O)O)[C@@H](O[C@H]4O[C@H](COS(=O)(=O)O)[C@@H](OCCC(=O)NCCO[C@@H]5O[C@@H](C(=O)O)[C@@H](O[C@H]6O[C@H](COS(=O)(=O)O)[C@@H](OCCC(=O)O)[C@H](O)[C@H]6NS(=O)(=O)O)[C@H](O)[C@H]5OS(=O)(=O)O)[C@H](O)[C@H]4NS(=O)(=O)O)[C@H](O)[C@H]3OS(=O)(=O)O)[C@H](O)[C@H]2NS(=O)(=O)O)[C@H](O)[C@H]1OS(=O)(=O)O` [compound 33], the Kd on FGF-2 [2] (setting [5]) is 0.0196 µM. Moreover, the IC50 at FGF-2 [3] amounted to 1700 nM.
Regarding `NCCS(=O)(=O)CCCCCO[C@@H]1O[C@@H](C(=O)O)[C@@H](O[C@H]2O[C@H](COS(=O)(=O)O)[C@@H](O[C@@H]3O[C@@H](C(=O)O)[C@@H](O[C@H]4O[C@H](COS(=O)(=O)O)[C@@H](O[C@@H]5O[C@@H](C(=O)O)[C@@H](O[C@H]6O[C@H](COS(=O)(=O)O)[C@@H](O)[C@H](O)[C@H]6NS(=O)(=O)O)[C@H](O)[C@H]5OS(=O)(=O)O)[C@H](O)[C@H]4NS(=O)(=O)O)[C@H](O)[C@H]3OS(=O)(=O)O)[C@H](O)[C@H]2NS(=O)(=O)O)[C@H](O)[C@H]1OS(=O)(=O)O` [compound 34], the “binding to FGF-2 as compared to heparin polysaccharide” value at FGF-2 [1] is “≈ 60%”.
For `CO[C@@H]1O[C@@H](C(=O)O)[C@@H](O[C@H]2O[C@H](COS(=O)(=O)O)[C@@H](O)[C@H](O)[C@H]2NS(=O)(=O)O)[C@H](O)[C@H]1OS(=O)(=O)O` [compound 37], the Kd on FGF-2 [4] is 17500 nM.
Take `CC(=O)NCCO[C@@H]1O[C@@H](C(=O)O)[C@@H](O[C@H]2O[C@H](CO)[C@@H](OCCC(=O)NCCO[C@@H]3O[C@@H](C(=O)O)[C@@H](O[C@H]4O[C@H](CO)[C@@H](OCCC(=O)NCCO[C@@H]5O[C@@H](C(=O)O)[C@@H](O[C@H]6O[C@H](CO)[C@@H](OCCC(=O)O)[C@H](O)[C@H]6NS(=O)(=O)O)[C@H](O)[C@H]5O)[C@H](O)[C@H]4NS(=O)(=O)O)[C@H](O)[C@H]3O)[C@H](O)[C@H]2NS(=O)(=O)O)[C@H](O)[C@H]1O` [33 m]: the “binding to FGF-2 (in words)” value at FGF-2 [2] (immobilized FGF-2, at 3 μM) is given as “little binding”. Further, at FGF-2 [2] (immobilized FGF-2, value printed in μM under head KD value (nM), read-out: KD value), the Kd is over 3 µM. In addition, the “inhibition of FGF-2/heparin interaction (in words)” value on FGF-2 [3] (under the experimental condition) is given as “did not exhibit any inhibition”.
Consider `NCCCCCO[C@@H]1O[C@@H](C(=O)O)[C@@H](O[C@H]2O[C@H](CO)[C@@H](O[C@@H]3O[C@@H](C(=O)O)[C@@H](O[C@H]4O[C@H](CO)[C@@H](O[C@@H]5O[C@@H](C(=O)O)[C@@H](O[C@H]6O[C@H](CO)[C@@H](O)[C@H](O)[C@H]6NS(=O)(=O)O)[C@H](O)[C@H]5O)[C@H](O)[C@H]4NS(=O)(=O)O)[C@H](O)[C@H]3O)[C@H](O)[C@H]2NS(=O)(=O)O)[C@H](O)[C@H]1O` [compound 36], for which the “binding to FGF-2 as compared to heparin polysaccharide” value at FGF-2 [1] is listed as under 2%.
Consider `NCCCCCO[C@H]1O[C@H](COS(=O)(=O)O)[C@@H](O[C@@H]2O[C@@H](C(=O)O)[C@@H](O[C@H]3O[C@H](COS(=O)(=O)O)[C@@H](O[C@@H]4O[C@@H](C(=O)O)[C@@H](O)[C@H](O)[C@H]4O)[C@H](O)[C@H]3NS(=O)(=O)O)[C@H](O)[C@H]2OS(=O)(=O)O)[C@H](O)[C@H]1NS(=O)(=O)O` [compound 38], for which the Kd at FGF-2 [4] is 1200 nM.
As to `CC(=O)NCCO[C@@H]1O[C@@H](C(=O)O)[C@@H](O[C@H]2O[C@H](COS(=O)(=O)O)[C@@H](OCCC(=O)NCCO[C@@H]3O[C@@H](C(=O)O)[C@@H](O[C@H]4O[C@H](COS(=O)(=O)O)[C@@H](OCCC(=O)NCCO[C@@H]5O[C@@H](C(=O)O)[C@@H](O[C@H]6O[C@H](COS(=O)(=O)O)[C@@H](OCCC(=O)O)[C@H](O)[C@H]6NC(C)=O)[C@H](O)[C@H]5OS(=O)(=O)O)[C@H](O)[C@H]4NC(C)=O)[C@H](O)[C@H]3OS(=O)(=O)O)[C@H](O)[C@H]2NC(C)=O)[C@H](O)[C@H]1OS(=O)(=O)O` [33 z], the Kd on FGF-2 [2] (setting [5]) was determined as 0.94 µM. Also, on FGF-2 [3], the IC50 is about 100000 nM.
